Assay results from patent US9556121B2, “Pyridyloxyalkyl carboxamides and use thereof as endoparasiticides and nematicides” (BAYER CROPSCIENCE AG, priority 2012, dated 2017).

Columns and labels:
Format in all cases: in vivo
[1] = tested on: Haemonchus contortus; test: Haemonchus contortus test (HAEMCO), larval kill; settings: for effect (kill in %): application rate 20 ppm, after 5 days, about 40 larvae; for inhibition at 20 ppm: Haemonchus contortus, 120 h, HAEMCO, 5 dat
Protocol: Haemonchus contortus Test (HAEMCO)
(§1) Solvent: dimethyl sulphoxide
(§2) To produce a suitable preparation of active compound, 10 mg of active compound are mixed with 0.5 ml of dimethyl sulphoxide, and the concentrate is diluted with Ringer solution to the desired concentration.
Vessels containing the active compound preparation of the desired concentration are populated with about 40 larvae of the red stomach worm (Haemonchus contortus).
(§3) After 5 days, the kill in % is determined. 100% means that all of the larvae have been killed; 0% means that none of the larvae have been killed.

[2] = tested on: Cooperia curticei; test: Cooperia curticei test (COOPCU), larval kill; settings: for effect (kill in %): after 5 days, about 40 nematode larvae; for inhibition at 20 ppm: Cooperia curticei, 120 h, COOPCU, 5 dat
Protocol: Cooperia curticei Test (COOPCU)
as §1, §2
Vessels containing the active compound preparation of the desired concentration are populated with about 40 nematode larvae (Cooperia curticei).
as §3

[3] = tested on: Meloidogyne incognita; test: Meloidogyne incognita test (MELGIN), gall formation on lettuce; settings: application rate 20 ppm, after 14 days, sand, egg/larvae suspension
Protocol: Meloidogyne incognita Test (MELGIN)
Solvent: 125.0 parts by weight of acetone
To prepare a suitable active compound preparation, 1 part by weight of active compound is mixed with the stated amount of solvent and the concentrate is diluted with water to the desired concentration.
Vessels are filled with sand, active compound solution, an egg/larvae suspension of the root-knot nematode (Meloidogyne incognita) and lettuce seeds. The lettuce seeds germinate and the plants develop. On the roots, galls are formed.
After 14 days, the nematicidal effect in % is determined by the formation of galls. 100% means that no galls have been found; 0% means that the number of galls on the treated plants corresponds to the untreated control.

Row | Structure (SMILES) | effect (kill in %) [1] [%] | effect (kill in %) ([2]; application rate 20 ppm) [%] | also measured
1 | O=C(NCCOc1ncc(C(F)(F)F)cc1Cl)c1ccccc1[N+](=O)[O-] [1-53] | 100 | – | –
2 | O=C(NCCOc1ccc(Cl)cn1)c1ccccc1I [1-34] | 90 | – | –
3 | O=C(NC1(COc2ccc(C(F)(F)F)cn2)CC1)c1c(F)cccc1F [1-168] | 90 | 100 | –
4 | O=C(NCCOc1ncc(Cl)cc1Cl)c1ccccc1Cl [1-16] | 100 | – | –
5 | O=C(NCCOc1ccc(Cl)cn1)c1ccccc1Br [1-33] | 80 | – | –
6 | O=C(NCCOc1ncc(C(F)(F)F)cc1Cl)c1ccccc1C(F)(F)F [1-1] | 100 | 100 | –
7 | O=C(NCCOc1ccc(C(F)(F)F)cn1)c1ccccc1I [1-44] | 100 | – | –
8 | O=C(NCCOc1ncc(F)cc1F)c1ccccc1I [1-141] | – | – | nematicidal effect in % (formation of galls) [3]: 90%
9 | O=C(NCCOc1ccc(C(F)(F)F)cn1)c1cccnc1C(F)(F)F [1-57] | 80 | – | –
10 | O=C(NCCOc1ncc(C(F)(F)F)cc1Cl)c1ccccc1C(F)F [1-2] | 100 | – | –
11 | O=C(NCCOc1ccc(C(F)(F)F)cn1)c1ccccc1Cl [1-42] | 80 | – | –
12 | CC(COc1ncc(C(F)(F)F)cc1Cl)NC(=O)c1cn(C)nc1C(F)F (stereo not shown) [1.239, reference compound] | – | – | inhibition at 20 ppm [2]: 0%; inhibition at 20 ppm [1]: 0%
13 | CC(COc1ccc(Cl)cc1Cl)NC(=O)c1ccccc1C(F)(F)F (stereo not shown) [4-2, reference compound] | – | – | inhibition at 20 ppm [2]: 0%
14 | O=C(NC1(COc2ccc(C(F)(F)F)cn2)CC1)c1ccccc1[N+](=O)[O-] [1-196] | 90 | – | –
15 | O=C(NCCOc1ccc(C(F)(F)F)cn1)c1ccccc1Br [1-43] | 90 | – | –
16 | CC(C)(COc1ncc(Cl)cc1Cl)NC(=O)c1ccccc1C(F)(F)F [1-82] | 90 | 90 | –
17 | N#Cc1cnc(OCCNC(=O)c2c(F)cccc2F)c(F)c1 [1-189] | – | – | nematicidal effect in % (formation of galls) [3]: 90%
18 | O=C(NCCOc1ncc(F)cc1F)c1c(F)cccc1F [1-133] | – | – | nematicidal effect in % (formation of galls) [3]: 90%
19 | O=C(NCCOc1ccc(Cl)cn1)c1c(F)cccc1F [1-35] | 80 | – | effect (kill in %) ([2]; application rate 100 ppm): 80%
20 | O=C(NCCOc1ncc(Cl)cc1Cl)c1ccccc1F [1-15] | 80 | – | –
21 | O=C(NCCOc1ccc(C(F)(F)F)cn1)c1c(F)cccc1F [1-45] | 90 | – | effect (kill in %) ([2]; application rate 100 ppm): 80%
22 | O=C(NC1(COc2ncc(C(F)(F)F)cc2Cl)CC1)c1ccccc1[N+](=O)[O-] [1-195] | 80 | – | –
23 | O=C(NCCOc1ncc(C(F)(F)F)cc1Cl)c1ccccc1Br [1-27] | 100 | 90 | –
24 | O=C(NCCOc1ncc(Cl)cc1Cl)c1ccccc1C(F)(F)F [1-20] | 100 | – | –
25 | O=C(NCCOc1ncc(C(F)(F)F)cc1Cl)c1ccccc1I [1-28] | 100 | 100 | –

Row | Structure (SMILES) | effect (kill in %) [1] [%] | effect (kill in %) ([2]; application rate 20 ppm) [%] | also measured
26 | O=C(NCCOc1ccc(C(F)(F)F)cn1)c1sccc1I [1-48] | – | 80 | –
27 | O=C(NCCOc1ccc(C(F)(F)F)cn1)c1ccccc1C(F)(F)F [1-46] | 100 | – | –
28 | N#Cc1cnc(OCCNC(=O)c2ccccc2C(F)(F)F)c(F)c1 [1-164] | 90 | 90 | nematicidal effect in % (formation of galls) [3]: 100%
29 | COc1ncccc1C(=O)NCCOc1ncc(C(F)(F)F)cc1Cl [1-155] | 100 | 80 | –
30 | O=C(NC1(COc2ncc(C(F)(F)F)cc2Cl)CC1)c1ccccc1C(F)(F)F [1-169] | 80 | 80 | –
31 | O=C(NCCOc1ncc(C(F)(F)F)cc1Cl)c1c(F)cccc1F [1-52] | 90 | – | –
32 | O=C(NC1(COc2ccc(C(F)(F)F)cn2)CC1)c1ccccc1Br [1-176] | 90 | 90 | –
33 | CC(C)(COc1ccc(C(F)(F)F)cn1)NC(=O)c1ccccc1C(F)(F)F [1-78] | 80 | 80 | –
34 | O=C(NCCOc1ncc(Cl)cc1Cl)c1sccc1I [1-22] | 100 | – | –
35 | O=C(NCCOc1ncc(Cl)cc1Cl)c1sccc1Cl [1-23] | 80 | – | –
36 | O=C(NCCOc1ncc(Cl)cc1Cl)c1c(F)cccc1F [1-19] | 90 | – | –
37 | O=C(NC1(COc2ncc(C(F)(F)F)cc2Cl)CC1)c1ccccc1I [1-170] | 100 | 100 | nematicidal effect in % (formation of galls) [3]: 100%
38 | Cc1ccccc1C(=O)NCCOc1ncc(C(F)(F)F)cc1Cl [1-29] | 80 | 80 | –
39 | CC(COc1ncc(C(F)(F)F)cc1Cl)NC(=O)c1ccccc1C(F)(F)F (stereo not shown) [1-4] | 90 | 100 | inhibition at 20 ppm [2]: 100%; inhibition at 20 ppm [1]: 90%
40 | CC(CNC(=O)c1ccccc1C(F)(F)F)Oc1ncc(C(F)(F)F)cc1Cl (stereo not shown) [1-25] | 100 | 90 | –
41 | O=C(NCCOc1ccc(Cl)cn1)c1ccccc1C(F)(F)F [1-36] | 80 | – | effect (kill in %) ([2]; application rate 100 ppm): 90%
42 | O=C(NC1(COc2ccc(C(F)(F)F)cn2)CC1)c1cccnc1Cl [1-177] | – | – | nematicidal effect in % (formation of galls) [3]: 90%
43 | O=C(NCCOc1ccc(C(F)(F)F)cn1)c1sccc1Cl [1-49] | – | – | nematicidal effect in % (formation of galls) [3]: 90%
44 | O=C(NCCOc1ncc(Cl)cc1Cl)c1ccccc1I [1-18] | 100 | – | nematicidal effect in % (formation of galls) [3]: 80%
45 | O=C(NCCOc1ncc(F)cc1F)c1ccccc1C(F)(F)F [1-134] | – | – | nematicidal effect in % (formation of galls) [3]: 90%
46 | O=C(NC1(COc2ncc(C(F)(F)F)cc2Cl)CC1)c1c(F)cccc1F [1-167] | 80 | – | –
47 | O=C(NC1(COc2ccc(C(F)(F)F)cn2)CC1)c1ccccc1C(F)(F)F [1-173] | 100 | 100 | –
48 | O=C(NCCOc1ncc(C(F)(F)F)cc1Cl)c1cccnc1C(F)(F)F [1-63] | 90 | 80 | nematicidal effect in % (formation of galls) [3]: 90%
49 | O=C(NCCOc1ncc(C(F)(F)F)cc1Cl)c1ccccc1Cl [1-26] | 100 | 80 | –
